Experimental data from patent US9493396B2, “Substituted naphthalene compounds as calcium sensing receptor modulators” (LUPIN ATLANTIS HOLDINGS SA, priority 2013, dated 2016).
Where a name gives a salt, the structure may show the parent alone.

target: T1, Calcium sensing receptor (hCaSR) (Homo sapiens, UniProt P41180); assay: In-vitro assay of calcimimetics through modulation of calcium sensing receptor (intracellular calcium increase, FLIPR); assay type: cell-based; settings: stably transfected HEK293 cells expressing hCaSR; Fluo4NW dye; 0.3 mM CaCl2; 8-point assay; read-out: EC50 in range
T1 construct: expressed in transfected cells; host or cells: HEK293 (stably transfected)
T1 sequence (P41180 20-1078): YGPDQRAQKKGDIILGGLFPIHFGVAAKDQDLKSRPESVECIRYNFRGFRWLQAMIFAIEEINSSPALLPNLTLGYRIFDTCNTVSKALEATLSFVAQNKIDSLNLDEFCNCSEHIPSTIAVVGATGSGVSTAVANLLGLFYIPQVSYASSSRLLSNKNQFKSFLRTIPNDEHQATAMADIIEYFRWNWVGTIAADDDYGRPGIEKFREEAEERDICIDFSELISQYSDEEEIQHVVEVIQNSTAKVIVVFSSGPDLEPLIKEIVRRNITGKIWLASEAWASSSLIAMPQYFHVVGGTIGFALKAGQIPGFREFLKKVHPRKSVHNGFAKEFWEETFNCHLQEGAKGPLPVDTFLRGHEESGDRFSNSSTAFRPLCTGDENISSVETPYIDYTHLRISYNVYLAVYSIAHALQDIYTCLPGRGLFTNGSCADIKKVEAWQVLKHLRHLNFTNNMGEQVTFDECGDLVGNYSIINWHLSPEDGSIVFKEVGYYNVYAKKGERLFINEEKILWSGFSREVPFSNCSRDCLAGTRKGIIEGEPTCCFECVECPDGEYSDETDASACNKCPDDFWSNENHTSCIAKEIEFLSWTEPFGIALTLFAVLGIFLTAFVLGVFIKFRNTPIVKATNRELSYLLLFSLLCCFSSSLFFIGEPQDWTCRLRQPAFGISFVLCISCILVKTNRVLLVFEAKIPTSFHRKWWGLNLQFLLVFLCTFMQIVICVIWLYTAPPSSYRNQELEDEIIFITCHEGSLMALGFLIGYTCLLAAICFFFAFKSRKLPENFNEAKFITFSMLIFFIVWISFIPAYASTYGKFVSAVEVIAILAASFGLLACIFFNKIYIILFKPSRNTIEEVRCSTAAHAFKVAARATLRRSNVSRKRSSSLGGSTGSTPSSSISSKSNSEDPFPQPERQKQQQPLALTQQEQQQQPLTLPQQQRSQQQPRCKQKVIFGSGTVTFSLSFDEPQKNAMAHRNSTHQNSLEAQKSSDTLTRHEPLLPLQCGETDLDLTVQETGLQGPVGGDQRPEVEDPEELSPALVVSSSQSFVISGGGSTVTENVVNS
Experimental: In-Vitro Assay Method of Calcimimetics Through Modulation of Calcium Sensing Receptor (CaSR): The ability of the compounds to modulate Calcium sensing receptor is determined by measuring an increase in intracellular calcium [Ca^2+]i. Stably transfected HEK293 cells expressing hCaSR_pTriEx-3 hygro vector are developed. Cells are grown overnight on a 96-well plate to 80% confluency in Ham's F12 containing 20% FBS at 37° C., 5% CO2. Subsequently, cells are washed extensively with 20 mM HEPES buffer containing 126 mM […], 1 mM MgCl2 and 4 mM KCl to remove serum components that might interfere with the assay. Cells are loaded with calcium sensing Fluo4NW dye in HEPES base buffer containing 0.1% BSA and 1 mg/ml glucose for 30 minutes to measure changes in intracellular calcium. The activities of the compounds are measured in FLIPR using 0.3 mM CaCl2 in 20 mM HEPES base buffer. The effectiveness of the compound to modulate receptor activity is determined by calculating the EC50 responses for that compound in an 8-point assay and plotted using GraphPad Prism 5.

EC50 | Compound
20 to 50 nM | COc1cc([C@@H](C)NCc2cc(-c3cccc(C(F)(F)F)c3)c3ccccc3c2)ccc1F [Example 4, (R)-1-(4-Fluoro-3-methoxyphenyl)-N-((4-(3-(trifluoromethyl)phenyl)naphthalen-2-yl)methyl)ethanamine hydrochloride]
50 to 400 nM | CC(N[C@H](C)c1cccc(Cl)c1)c1cc(-c2ccc(F)c(C(=O)O)c2)c2ccccc2c1 (stereo partly drawn) [Example 127, 5-(3-(1-(((R)-1-(3-Chlorophenyl)ethyl)amino)ethyl)naphthalen-1-yl)-2-fluorobenzoic acid hydrochloride]
< 20 nM | COc1cccc([C@@H](C)NCc2cc(-c3cccc(C(=O)O)c3)c3ccccc3c2)c1 [Example 108, (R)-3-(3-(((1-(3-Methoxyphenyl)ethyl)amino)methyl)naphthalen-1-yl)benzoic acid hydrochloride]
20 to 50 nM | CC(N[C@H](C)c1cccc(Cl)c1)c1cc(-c2ccc(F)c(CCC(=O)O)c2)c2ccccc2c1 (stereo partly drawn) [Example 144, 3-(5-(3-(1-(((R)-1-(3-Chlorophenyl)ethyl)amino)ethyl)naphthalen-1-yl)-2-fluorophenyl)propanoic acid hydrochloride]
20 to 50 nM | COc1cc([C@@H](C)NCc2cc(-c3ccc(C(F)(F)F)cc3)c3ccccc3c2)ccc1F [Example 2, (R)-1-(4-Fluoro-3-methoxyphenyl)-N-((4-(4-(trifluoromethyl)phenyl)naphthalen-2-yl)methyl)ethanamine hydrochloride]
20 to 50 nM | COc1cccc([C@@H](C)NC(C)c2cc(-c3cccc(C(=O)O)c3C)c3ccccc3c2)c1 (stereo partly drawn) [Example 116, 3-(3-(1-(((R)-1-(3-Methoxyphenyl)ethyl)amino)ethyl)naphthalen-1-yl)-2-methylbenzoic acid hydrochloride]
20 to 50 nM | COc1cc([C@@H](C)NCc2cc(-c3ccc(C(=O)O)cc3)c3ccccc3c2)ccc1F [Example 107, (R)-4-(3-(((1-(4-Fluoro-3-methoxyphenyl)ethyl)amino)methyl)naphthalen-1-yl)benzoic acid hydrochloride]
< 20 nM | COc1cccc([C@@H](C)NC(C)c2cc(-c3ccc(C(F)(F)F)cc3)c3ccc(F)cc3c2)c1 (stereo partly drawn) [Example 162, (1R)-1-(3-methoxyphenyl)-N-(1-(7-fluoro-4-(4-(trifluoromethyl)phenyl)naphthalen-2-yl)ethyl)ethanamine hydrochloride]
20 to 50 nM | COc1cccc([C@@H](C)NC(C)c2cc(-c3ccc(C)c(C(=O)O)c3)c3ccccc3c2)c1 (single isomer, unassigned) [Example 114b, hydrochloride]
20 to 50 nM | COc1cccc([C@@H](C)NC(C)c2cc(-c3ccc(OC)c(CCC(=O)O)c3)c3ccccc3c2)c1 (stereo partly drawn) [Example 131, 3-(2-Methoxy-5-(3-(1-(((R)-1-(3-methoxyphenyl)ethyl)amino)ethyl)naphthalen-1-yl)phenyl) propanoic acid hydrochloride]
< 20 nM | COc1cccc([C@@H](C)NC(C)c2cc(-c3cc(F)cc(N4CCOCC4)c3)c3ccccc3c2)c1 (stereo partly drawn) [Example 161, 1-(4-(3-Fluoro-5-morpholinophenyl)naphthalen-2-yl)-N-((R)-1-(3-methoxyphenyl)ethyl)ethanamine hydrochloride]
50 to 400 nM | COc1cccc([C@@H](C)NC(C)c2cc(-c3cc(F)cc(CCC(=O)O)c3)c3cc(F)ccc3c2)c1 (stereo partly drawn) [Example 147, 3-(3-Fluoro-5-(7-fluoro-3-(1-(((R)-1-(3-methoxyphenyl)ethyl)amino)ethyl)naphthalen-1-yl)phenyl)propanoic acid hydrochloride]
50 to 400 nM | COc1cc(F)cc(C(C)NC(C)c2cc(-c3ccc(C(F)(F)F)cc3)c3ccccc3c2)c1 (single isomer, unassigned) [Example 163a, 1-(3-Fluoro-5-methoxyphenyl)-N-(1-(4-(4-(trifluoromethyl)phenyl)naphthalen-2-yl)ethyl)ethanamine hydrochloride]
50 to 400 nM | COc1cccc([C@@H](C)NCc2cc(-c3cccc(C(C)(C)C(=O)O)c3)c3ccccc3c2)c1 [Example 112, (R)-2-(3-(3-(((1-(3-Methoxyphenyl)ethyl)amino)methyl)naphthalen-1-yl)phenyl)-2-methylpropanoic acid hydrochloride]
< 20 nM | COc1cccc([C@@H](C)NC(C)c2cc(-c3cc(F)cc(CCC(=O)O)c3)c3ccccc3c2)c1 (stereo partly drawn) [Example 134, 3-(3-Fluoro-5-(3-(1-(((R)-1-(3-methoxyphenyl)ethyl)amino)ethyl)naphthalen-1-yl)phenyl)propanoic acid hydrochloride]
< 20 nM | CCOc1cccc([C@@H](C)NC(C)c2cc(-c3ccc(C)c(CCC(=O)O)c3)c3ccccc3c2)c1 (stereo partly drawn) [Example 157, 3-(5-(3-(1-(((R)-1-(3-Ethoxyphenyl)ethyl)amino)ethyl)naphthalen-1-yl)-2-methylphenyl) propanoic acid hydrochloride]
50 to 400 nM | COc1cccc([C@@H](C)NCc2cc(-c3ccc(C(C)(C)C(=O)O)cc3)c3ccccc3c2)c1 [Example 111, (R)-2-(4-(3-(((1-(3-Methoxyphenyl)ethyl)amino)methyl)naphthalen-1-yl)phenyl)-2-methylpropanoic acid hydrochloride]
50 to 400 nM | COc1cccc([C@@H](C)NC(C)c2cc(-c3cccc(C(C)(C)C(=O)O)c3)c3ccccc3c2)c1 (stereo partly drawn) [Example 139, 2-(3-(3-(1-(((R)-1-(3-Methoxyphenyl)ethyl)amino)ethyl)naphthalen-1-yl)phenyl)-2-methylpropanoic acid hydrochloride]
< 20 nM | COc1cc([C@@H](C)NC(C)c2cc(-c3ccc(C(F)(F)F)cc3)c3ccccc3c2)ccc1F (mixture of isomers) [Example 11, (1R)-1-(4-Fluoro-3-methoxyphenyl)-N-(1-(4-(4-(trifluoromethyl)phenyl)naphthalen-2-yl)ethyl)ethanamine hydrochloride]
50 to 400 nM | CCC(N[C@H](C)c1cccc(OC)c1)c1cc(-c2ccc(F)c(CCC(=O)O)c2)c2ccccc2c1 (stereo partly drawn) [Example 140, 3-(2-Fluoro-5-(3-(1-(((R)-1-(3-methoxyphenyl)ethyl)amino)propyl)naphthalen-1-yl)phenyl)propanoic acid hydrochloride]
< 20 nM | COc1cccc([C@@H](C)NC(C)c2cc(-c3ccc(OC(F)F)cc3)c3ccccc3c2)c1 (stereo partly drawn) [Example 21, 1-(4-(4-(Difluoromethoxy)phenyl)naphthalen-2-yl)-N-((R)-1-(3-methoxyphenyl)ethyl)ethanamine hydrochloride]
< 20 nM | COc1cccc([C@@H](C)NCc2cc(-c3ccc(C)c(C(=O)O)c3)c3ccccc3c2)c1 [Example 90, (R)-5-(3-(((1-(3-Methoxyphenyl)ethyl)amino)methyl)naphthalen-1-yl)-2-methylbenzoic acid hydrochloride]
50 to 400 nM | COc1cccc([C@@H](C)NC(C)c2cc(-c3ccc(C(C)(C)C(=O)O)cc3)c3ccccc3c2)c1 (stereo partly drawn) [Example 138, 2-(4-(3-(1-(((R)-1-(3-Methoxyphenyl)ethyl)amino)ethyl)naphthalen-1-yl)phenyl)-2-methylpropanoic acid hydrochloride]
< 20 nM | COc1cccc([C@@H](C)NC(C)c2cc(-c3ccc(F)c(CCC(=O)O)c3)c3ccccc3c2)c1 (stereo partly drawn) [Example 122, 3-(2-Fluoro-5-(3-(1-(((R)-1-(3-methoxyphenyl)ethyl)amino)ethyl)naphthalen-1-yl)phenyl)propanoic acid hydrochloride]
